Measurements taken from patent US20220226484A1, “THERAPEUTIC PEPTIDES” (COHBAR, INC., priority 2019, published 2022).
Positions of bridges follow the written chain, without caps; N, C: chain ends. Non-standard residues stand in square brackets, D forms with d. Primed or numbered codes have the meaning given here. Chains are numbered I, II in the order given. No end group written: not given here. PEG12′ = not defined here; Nle = CCCC[C@H](N)C(=O)O

What was measured:
Assay type in all cases: cell-based
[1] = test system: A172 human brain glioblastoma cell line; assay: Caspase 3/7 activity (Caspase-Glo 3/7 Assay); conditions: peptide 10 μM, 18-20 hours, relative to 0.1% DMSO control
Protocol: The effect of the peptides on cell death/survival can be assessed using a caspase-3/7 assay in cultured cells. Peptides were dissolved at 10 mM in DMSO as stock solutions for use at a final concentration of 10 μM. […] Caspase-Glo 3/7 Assay Reagent was purchased from Promega (Madison, Wis.). A172 human brain glioblastoma cell line was purchased from American Type Culture Collection (Manassas, Va.). A172 cells were grown in DMEM supplemented with 10% FBS with 100 IU/ml penicillin and 100 μg/ml streptomycin. Cultures were maintained at 37° C. in a humidified atmosphere of 5% CO2/95% air. A172 cells were seeded at 8,000 cells per well on 96-well plates. […] Caspase 3/7 activity was determined using a Caspase-Glo 3/7 Assay kit (Promega) according to the manufacturer's instructions. Luminescence for each sample well on the plate was measured using a Cytation 3 plate reader (BioTek, Winooski, Vt.). Activity was calculated relative to 0.1% DMSO control.

3T3-L1 Mouse Adipocytes = assay: Free fatty acid levels in cultured mouse adipocytes; conditions: peptide 10 μM, 1 nM isoproterenol, relative to isoproterenol treated cells
Protocol: The effect of the peptides on fatty acid metabolism can be assessed using an assay of free fatty acid levels in cultured cells such as mouse adipocytes. Peptides were initially prepared as 10 mM stock in DMSO and used at a final concentration of 10 μM (0.1% DMSO). […] Mouse 3T3-L1 cells purchased from ZenBio were seeded at 3,000 cells per well in 96-well plates in Pre-adipocyte Medium (Zen-Bio) and grown to confluence at 37° C. in a humidified atmosphere of 5% CO2/95% air. Two days after confluence, cells were placed in Adipocyte Differentiation Medium (Zen-Bio) and cultured for three additional days at 37° C. in a humidified atmosphere of 5% CO2/95% air. The culture media was then replaced with Adipocyte Maintenance Medium (Zen-Bio) and the cells maintained for an additional 9-12 days at 37° C. in a humidified atmosphere of 5% CO2/95% air with partial medium replacement every other day. Following 12-15 days of differentiation, test peptides were added at a final concentration of 10 μM in 0.1% DMSO and incubated for 20-22 hours in Adipocyte Maintenance Medium at 37° C. in a humidified atmosphere of 5% CO2/95% air. After 20-22 hours, 1 nM isoproterenol was added to all wells except untreated controls and test peptides were replenished. Insulin at 100 nM was added to control wells. Cells were incubated for 3 hours in Assay Buffer (Zen-Bio) at 37° C. in a humidified atmosphere of 5% CO2/95% air. Free fatty acid concentrations in the media were determined using a Free Fatty Acid Assay kit (Zen-Bio) according to the manufacturer's instructions using a Cytation 3 plate reader at 540 nm (BioTek, Winooski, Vt.). Absorbance values were corrected for untreated background and expressed relative to isoproterenol treated cells. Treatment with isoproterenol (1 nM) alone was used as the free fatty acid level stimulatory control. The relative standard deviation of the isoproterenol control was <10%. […] Free fatty acid levels for insulin (100 nM) treatment were <5% of the isoproterenol control value.
The effect of the peptides on fatty acid metabolism was assessed using an assay of free fatty acid levels in cultured cells such as mouse adipocytes. Peptides were initially prepared as 10 mM stock in DMSO and used at a final concentration of 10 μM (0.1% DMSO). […] Mouse 3T3-L1 cells purchased from ZenBio were seeded at 3,000 cells per well in 96-well plates in Pre-adipocyte Medium (Zen-Bio) and grown to confluence at 37° C. in a humidified atmosphere of 5% CO2/95% air. Two days after confluence, cells were placed in Adipocyte Differentiation Medium (Zen-Bio) and cultured for three additional days at 37° C. in a humidified atmosphere of 5% CO2/95% air. The culture media was then replaced with Adipocyte Maintenance Medium (Zen-Bio) and the cells maintained for an additional 9-12 days at 37° C. in a humidified atmosphere of 5% CO2/95% air with partial medium replacement every other day. Following 12-15 days of differentiation, test peptides were added at a final concentration of 10 μM in 0.1% DMSO and incubated for 20-22 hours in Adipocyte Maintenance Medium at 37° C. in a humidified atmosphere of 5% CO2/95% air. After 20-22 hours, 1 nM isoproterenol was added to all wells except untreated controls and test peptides were replenished. Insulin at 100 nM was added to control wells. Cells were incubated for 3 hours in Assay Buffer (Zen-Bio) at 37° C. in a humidified atmosphere of 5% CO2/95% air. Free fatty acid concentrations in the media were determined using a Free Fatty Acid Assay kit (Zen-Bio) according to the manufacturer's instructions using a Cytation 3 plate reader at 540 nm (BioTek, Winooski, Vt.). Absorbance values were corrected for untreated background and expressed relative to isoproterenol treated cells. Treatment with isoproterenol (1 nM) alone was used as the free fatty acid level stimulatory control. The relative standard deviation of the isoproterenol control was <10%. […]

[2] = test system: WI-38 cells (human fetal lung fibroblast cells); assay: Fibroblast-to-myofibroblast transition assay, pro-collagen I alpha 1 expression; conditions: 10 μM peptide and 5 ng/ml TGF-β, 48 h, cell lysates
Protocol: The effect of the peptides on fibrosis can be assessed in vitro using a fibroblast-to-myofibroblast transition (FMT) assay and monitoring pro-collagen I alpha 1 expression produced by cultured cells such as human fetal lung fibroblast cells. Peptides were initially prepared as 10 mM stock solutions in DMSO or 1 mM stock in H2O and were used at a final concentration of 10 μM (0-0.1% DMSO). Transforming Growth Factor beta (TGF-β) was used as a potent inducer of FMT as measured by increased pro-collagen I alpha 1 expression. Human WI-38 cell line was purchased from American Type Culture Collection (Manassas, Va.). WI-38 cells were seeded in complete medium (DMEM/high glucose (4 g/L)+10% Fetal Bovine Serum+1% penicillin/streptomycin) at 40,000 cells/well on 48-well plates and placed at 37° C. in a humidified atmosphere of 5% CO2/95% air. The next day, the medium was removed, cells were rinsed twice with HBSS, and the medium replaced with Serum Restricted Medium (DMEM/high glucose (4 g/L)+0.2% Fetal Bovine Serum+1% penicillin/streptomycin). The cultures were placed at 37° C. in a humidified atmosphere of 5% CO2/95% air overnight. Following 24 h in Serum Restricted Medium, the medium was removed, and the following was added: fresh Serum Restricted Medium alone (no TGF-β control); fresh Serum Restricted Medium containing 5 ng/ml TGF-β (TGF-β control); or fresh Serum Restricted Medium containing 10 μM peptide and 5 ng/ml TGF-β. Cells were incubated for 48 h at 37° C. in a humidified atmosphere of 5% CO2/95% air, washed twice with cold HBSS and immediately lysed. Lysis and determination of pro-collagen I alpha 1 concentrations in the cell lysates were performed using a Pro-Collagen I Alpha 1 ELISA kit (Abcam; Cambridge, Mass.) according to the manufacturer's instructions; absorbance was measured using a Cytation 3 plate reader at 450 nm (BioTek, Winooski, Vt.).

| Substance | Caspase 3/7 Activity, Percent of Control Activity [1] [%] | Free Fatty Acid Levels, MEAN % ISO (3T3-L1 Mouse Adipocytes; Table 6) [%] | Free Fatty Acid Levels, MEAN % ISO (3T3-L1 Mouse Adipocytes; Table 12) [%] | Procollagen I Alpha 1 Mean (SEM) [2] |
| --- | --- | --- | --- | --- |
| MRVIRMCLGVGLLGDLAG [SEQ ID NO: 2] | 109.3 | 26.4 | 26 | – |
| R(dA)IR(Nle)SLNVGLLGEL(dA) (R[dA]IR[Nle]SLNVGLLGEL[dA]) [SEQ ID NO: 15] | – | – | 101 | – |
| RVIR(Nle)CLNVGLLGEL(dA)G (RVIR[Nle]CLNVGLLGEL[dA]G) [SEQ ID NO: 6] | – | – | 78 | – |
| RVIR(Nle)SLNVGLEGEL(dA) (RVIR[Nle]SLNVGLEGEL[dA]) [SEQ ID NO: 14] | – | – | 64 | – |
| RVIR(Nle)SLNVGLLGEL(dA)G (RVIR[Nle]SLNVGLLGEL[dA]G) [SEQ ID NO: 8] | – | – | 64 | – |
| RVIRMCLGVGLLGDL(dA)G (RVIRMCLGVGLLGDL[dA]G) [SEQ ID NO: 4] | 112.4 | 20.1 | 20 | – |
| RVIRMCLGVGLLGDLAG (disulfide I:6-II:6) [SEQ ID NO: 26] | – | – | 39 | – |
| RVIRMCLGVGLLGDLAG [SEQ ID NO: 3] | 109.4 | 19.7 | 20 | – |
| RVIRMCLGVGLLGDLAGK{PEG12} (RVIRMCLGVGLLGDLAGK(PEG12′)) [SEQ ID NO: 17] | – | – | 31 | – |
| RVIRMCLGVGLLGDLAGK{PEG12} (chain 1 RVIRMCLGVGLLGDLAGK(PEG12′); chain 2 RVIRMCLGVGLLGDLAGK(PEG12′); disulfide I:6-II:6) [SEQ ID NO: 28] | – | – | – | 1830 (507) pg/mL |
| RVIRMCLNNGLLGEL(dA)G (RVIRMCLNNGLLGEL[dA]G) [SEQ ID NO: 9] | – | – | 30 | – |
| RVIRMCLNNGLNGEL(dA)E (RVIRMCLNNGLNGEL[dA]E) [SEQ ID NO: 23] | – | – | 61 | – |
| RVIRMCLNVGLLGEL(dA)E (RVIRMCLNVGLLGEL[dA]E) [SEQ ID NO: 12] | – | – | 22 | – |
| RVIRMCLNVGLLGEL(dA)G [SEQ ID NO: 5] (RVIRMCLNVGLLGEL[dA]G) | 107.0 | 18.3 | 18 | 4200 (597) pg/mL |
| RVIRMCLNVGLNGEL(dA)G (RVIRMCLNVGLNGEL[dA]G) [SEQ ID NO: 11] | – | – | 36 | – |
| RVIRMCLNVGNLGEL(dA)G (RVIRMCLNVGNLGEL[dA]G) [SEQ ID NO: 10] | – | – | 29 | 4460 (235) pg/mL |
| RVIRMSLNVGLEGEL(dA) (RVIRMSLNVGLEGEL[dA]) [SEQ ID NO: 13] | – | – | 71 | – |
| RVIRMSLNVGLLGEL(dA)G (RVIRMSLNVGLLGEL[dA]G) [SEQ ID NO: 7] | – | – | 77 | – |
